Assay results from ChEMBL document CHEMBL3400084, “Synthesis and evaluation of tetrahydroindazole derivatives as sigma-2 receptor ligands” (Bioorg Med Chem, 2015).

Experiments:
[1] = Displacement of [3H]-di-o-tolylguanidine from sigma 2 receptor in Sprague-Dawley rat liver membranes after 120 mins by beta counting in presence of (+)-pentazocine; assay type: cell membranes, Membrane
[2] = target: Sigma non-opioid intracellular receptor 1 (Cavia porcellus, UniProt Q60492); assay: Displacement of (+)-[3H]pentazocine from sigma 1 receptor in guinea pig brain homogenate after 120 mins by beta counting; assay type: tissue-based
Sequence of Sigma non-opioid intracellular receptor 1 (Q60492 whole entry): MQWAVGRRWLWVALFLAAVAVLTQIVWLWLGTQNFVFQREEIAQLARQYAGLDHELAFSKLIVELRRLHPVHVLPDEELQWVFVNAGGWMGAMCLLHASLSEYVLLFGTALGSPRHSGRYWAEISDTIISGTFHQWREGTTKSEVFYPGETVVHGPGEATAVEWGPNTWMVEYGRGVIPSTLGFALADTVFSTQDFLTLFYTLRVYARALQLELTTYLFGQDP

[3] = Selectivity ratio of Ki for sigma 1 receptor in guinea pig brain homogenate to Ki for sigma 2 receptor in Sprague-Dawley rat liver membranes; assay type: cell membranes

Row | SMILES | Ki [1] [nM] | Ki [2] [nM] | Ratio Ki [3]
1 | Cc1ccccc1NC(=N)Nc1ccccc1C [DITOLYLGUANIDINE] | 19.4 | – | –
2 | COc1cc2c(cc1OC)CN(c1cc(-n3nc(C)c4c3CC(C)(C)CC4=O)ccc1C(N)=O)CC2 | 18400 | > 1000 | –
3 | COc1cc2c(cc1OC)CN(CCCCCNc1cc(-n3nc(C)c4c3CC(C)(C)CC4=O)ccc1C(N)=O)CC2 | 74.5 | > 1000 | > 13
4 | COc1cc2c(cc1OC)CN(CCCCCCNc1cc(-n3nc(C)c4c3CC(C)(C)CC4=O)ccc1C(N)=O)CC2 | 21500 | > 1000 | –
5 | Cc1nn(-c2ccc(C(N)=O)c(NC3CC4CCCC(C3)N4)c2)c2c1C(=O)CC(C)(C)C2 (centres undefined) | 46.6 | > 1000 | > 21

Further lines, results first:

Row | Ki [1] [nM] | Ki [2] [nM] | Ratio Ki [3] | SMILES
6 | 142 | > 1000 | > 7 | COc1cc2c(cc1OC)CN(CCCCNc1cc(-n3nc(C)c4c3CC(C)(C)CC4=O)ccc1C(N)=O)CC2
7 | 89.8 | > 1000 | > 11 | COc1cc2c(cc1OC)CN(CCCNc1cc(-n3nc(C)c4c3CC(C)(C)CC4=O)ccc1C(N)=O)CC2
8 | 820 | > 1000 | – | COc1cc2c(cc1OC)CN(CCNc1cc(-n3nc(C)c4c3CC(C)(C)CC4=O)ccc1C(N)=O)CC2
